According to patent US20060052341A1, “Control of a biological function” (priority 2002, published 2006):
Read-outs that look alike come from different tables or passages of the source.

Legend:
[1] = within 6 hours of ingesting 1.5 g, human subjects; cited from earlier work
[2] = prior art, cited from earlier work
[3] = Serum oestradiol after intravaginal release of oestradiol 17β/cyclodextrin tablets; oestradiol half life; assay type: in vivo, cattle
Description: However, oestradiol benzoate is only one of the preferred oestrogen component of the present invention.
For the purpose of the present invention as exampled via the control of oestrus in cattle, release of oestrogen tablets into the vagina was carefully timed and recorded. […] A 1 mg dose produced maximum mean values of 130-180 pg/ml at 100-130 minutes after treatment, while a 2 mg dose led to maxima of 180 to >250 pg at 120-150 minutes.
A 1 mg dose produced maximum mean values of 130-180 pg/ml at 100-130 minutes after treatment, while a 2 mg dose led to maxima of 180 to >250 pg at 120-150 minutes, as illustrated in FIG. 11.

[4] = 24 mg controlled release implants, non-pregnant heifers; cited from earlier work
in vivo = conditions: female, cattle
From the text: In the urine, up to 30% of an administered dose appears as a conjugate of glucuronic acid and pregnanediol.

[5] = rat, in vivo; cited from earlier work
[6] = cited from earlier work
[7] = treated cows; cited from earlier work
dairy cows = conditions: seven hundred and thirty seven dairy cows, three years; cited from earlier work
cattle = assay: Luteolysis studies with intravaginal sodium cloprostenol; assay type: in vivo
Description: In effecting the desired delivery regime for the present invention as directed to use in controlling bestrus in cattle, a number of studies were conducted. […] There is no reliable blood test for sodium cloprostenol. The best test is to assess the success of luteolysis following application of sodium cloprostenol.

[8] = 7.2 mg oestradiol 17β intravaginally
[9] = 1 mg dose, intravaginal tablet with cyclodextrin carrier
[10] = 1 mg oestradiol benzoate by intramuscular injection
[11] = vaginal administration of 10 mg oestradiol benzoate

OCc1ccccc1 [benzyl alcohol]
dose eliminated in the urine as hippuric acid [1]: 75% to 85%

C[C@]12CC[C@@H]3c4ccc(O)cc4CC[C@H]3[C@@H]1CC[C@@H]2O [oestradiol 17β, oestra-1,3,5 (10)-triene-3,17β-diol]
peak plasma oestradiol concentration ([2]; 7.2 mg oestradiol 17β intravaginally with cyclodextrin): 10 to 20 pg/mL | duration of elevated plasma levels [2, 8]: at least 24 hours | time of peak plasma oestradiol [2, 8]: four | maximum mean serum oestradiol [3, 9]: 130 to 180 pg/mL | time of maximum serum oestradiol after treatment [3, 9]: 100 to 130 min | time of maxima of serum oestradiol ([3]; 2 mg dose, intravaginal tablet with cyclodextrin carrier): 120 to 150 min | time for serum oestradiol to reach peak values from basal levels ([3]; intravaginal oestrogen tablets): 2 to 3 h | half life ([3]; oestradiol without the benzoate component): only a few minutes

C[C@]12CC[C@@H]3c4ccc(OC(=O)c5ccccc5)cc4CC[C@H]3[C@@H]1CC[C@@H]2O [oestradiol benzoate, oestra-1,3,5 (10)-triene-3,17β-diol 3-benzoate]
peak plasma oestradiol concentration [2, 10]: 8 to 13 pg/mL | time of peak plasma oestradiol [2, 10]: approximately 2 hours | peak plasma oestradiol concentration [2, 11]: 2 to 5 pg/mL | time of peak plasma oestradiol [2, 11]: 2 to 48 h | half life ([3]; bovine, in vivo): longer than two to three minutes

C[C@]12CC[C@@H]3c4ccc(O)cc4CC[C@H]3[C@@H]1CC[C@@H]2O [oestradiol]
oestrogen levels in tissues of slaughtered animals [4]: not significantly different from untreated animals

CC(=O)[C@H]1CC[C@H]2[C@@H]3CCC4=CC(=O)CC[C@]4(C)[C@H]3CC[C@]12C [progesterone]
half-life (in vivo): ~20 min | LD100 [5]: 327.1 mg/kg | half-life of progesterone in blood ([6]; in vivo): only a few minutes

CCCCC[C@H](O)/C=C/[C@@H]1[C@@H](C/C=C\CCCC(=O)O)[C@@H](O)C[C@H]1O [prostaglandin PGF2α, prostaglandin F2α]
half-life in the blood [7]: three | half-life ([6]; rapid breakdown): a few minutes

O=C(O)CCC/C=C\CC1C(O)CC(O)C1/C=C/C(O)COc1cccc(Cl)c1 (stereo not drawn) [sodium cloprostenol, cloprostenol sodium]
side effects on subsequent fertility (dairy cows): no chronic side effects on subsequent fertility | response to treatment compared with prior art intramuscular injection of prostaglandin alone (cattle; HPβCD carrier, increased dose rate): equivalent response | luteolytic effect (cattle; intravaginal, without a suitable carrier, at the level dosed): not having a complete luteolic effect | luteolytic effect (cattle; same dose administered with HPβCD): incomplete luteolysis
